In patent publication US8685992B2, “Histone deacetylase inhibitors based simultaneously on trisubstituted 1H-pyrroles and aromatic and heteroaromatic spacers” (Universidad del País Vasco, priority 2009, dated 2014):

What was measured:
MIAPACA-2 = assay: Cancer cell growth inhibition, MIAPACA-2; assay type: cell-based, human; settings: Homo sapiens, MIA PaCa-2; MIAPACA-2, Pancreatic Cancer, 72 h treatment
Description: (§1) Cell culture-based assays were used to evaluate the ability of compounds of the invention to inhibit cancer cell growth inhibition.
(§2) Cells were obtained from the American Type Culture Collection (ATCC). Cells were cultured at 37° C. with 5% CO2 in the appropriate growth medium (see table below), and harvested respectively during the logarithmic growth period and counted with hemocytometer. The cell viability was over 98% by trypan blue exclusion. Cell concentrations were adjusted between 5×10^4 and 2×10^5 cells/ml with respective medium.
(§3) Stock solutions of test compounds and positive drugs Doxorubicin (Zhejiang, Haizheng, China), Paclitaxel (Beijing, Xiehe, China), Vincristin (Shenzhen Wanle, China), 5-FU (Tianjin jinyaoanjisuan, China), Irinotecan (Jiangsu Hengrui, China) and Cisplatin Nanjing zhiyao, China) were prepared in dimethyl sulphoxide (DMSO) or PBS at 20 mM.
(§4) All treatments were performed in triplicate. 10 μl drug solution was added to each well and incubated for 72 hours. At the end of the incubation, 20 μl of the freshly prepared MTS/PMS mixture solution was added to each well and incubated for 4 hours at 37° C. in a humidified, 5% CO2 atmosphere. Absorbance was read at 490 nm using SpectraMAX Plus microplate spectrophotometer. […] In order to calculate IC50, a dose-responsive curve was fitted using nonlinear regression model with a sigmoidal dose response.

MCF-7-FL = assay: Cancer cell growth inhibition, MCF-7-FL; assay type: cell-based; settings: Homo sapiens, Breast Cancer, 72 h treatment
Description: as §1, §2, §3, §4

Human HDAC1 = Human HDAC1 (Homo sapiens (Human), UniProt Q13547); assay: HDAC1 fluorogenic peptide deacetylation assay; assay type: biochemical; settings: human HDAC1, 50 μM substrate, 30° C., 2 h; read-out: IC50 (nM) of enzyme activity HDAC1
Chain of Human HDAC1 (Q13547 whole entry): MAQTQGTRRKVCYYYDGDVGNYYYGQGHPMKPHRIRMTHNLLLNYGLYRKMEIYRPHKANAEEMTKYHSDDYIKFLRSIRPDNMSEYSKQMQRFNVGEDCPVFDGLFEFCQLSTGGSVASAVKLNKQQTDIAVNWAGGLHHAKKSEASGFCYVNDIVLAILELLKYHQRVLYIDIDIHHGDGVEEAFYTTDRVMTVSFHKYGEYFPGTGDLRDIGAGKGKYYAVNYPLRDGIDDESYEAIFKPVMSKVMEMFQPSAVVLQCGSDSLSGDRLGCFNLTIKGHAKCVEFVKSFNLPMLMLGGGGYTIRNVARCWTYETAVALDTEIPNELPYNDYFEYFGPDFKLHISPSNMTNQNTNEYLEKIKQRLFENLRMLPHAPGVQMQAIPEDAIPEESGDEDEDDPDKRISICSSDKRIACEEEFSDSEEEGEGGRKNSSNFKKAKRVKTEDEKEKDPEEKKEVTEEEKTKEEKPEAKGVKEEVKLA

MCG803 = assay: Cancer cell growth inhibition, MCG803; assay type: cell-based, human; settings: Homo sapiens; MCG803, Gastric Cancer, 72 h treatment
Description: as §1, §2, §3, §4

HepG2 = assay: Cancer cell growth inhibition, HepG2; assay type: cell-based, human; settings: Homo sapiens; HepG2, Liver Cancer, 72 h treatment
Description: as §1, §2, §3, §4

SK-OV-3 = assay: Cancer cell growth inhibition, SK-OV-3; assay type: cell-based, human; settings: Homo sapiens; SK-OV-3, Ovarian Cancer, 72 h treatment
Description: as §1, §2, §3, §4

HT-1080 = assay: Cancer cell growth inhibition, HT-1080; assay type: cell-based; settings: Homo sapiens; HT-1080, Fibrosarcoma, 72 h treatment
Description: as §1, §2, §3, §4

SW620 = assay: Cancer cell growth inhibition, SW620; assay type: cell-based, human; settings: Homo sapiens, SW-620; SW620, Colorectal Cancer, 72 h treatment
Description: as §1, §2, §3, §4

DLD-1 = assay: Cancer cell growth inhibition, DLD-1; assay type: cell-based, human; settings: Homo sapiens; DLD-1, Colorectal Cancer, 72 h treatment
Description: as §1, §2, §3, §4

Human HDAC2 = Human HDAC2 (Homo sapiens (Human), UniProt Q92769); assay: HDAC2 fluorogenic peptide deacetylation assay; assay type: biochemical; settings: human HDAC2, 50 μM substrate, 30° C., 2 h; read-out: IC50 (nM) of enzyme activity HDAC2
Chain of Human HDAC2 (Q92769 whole entry): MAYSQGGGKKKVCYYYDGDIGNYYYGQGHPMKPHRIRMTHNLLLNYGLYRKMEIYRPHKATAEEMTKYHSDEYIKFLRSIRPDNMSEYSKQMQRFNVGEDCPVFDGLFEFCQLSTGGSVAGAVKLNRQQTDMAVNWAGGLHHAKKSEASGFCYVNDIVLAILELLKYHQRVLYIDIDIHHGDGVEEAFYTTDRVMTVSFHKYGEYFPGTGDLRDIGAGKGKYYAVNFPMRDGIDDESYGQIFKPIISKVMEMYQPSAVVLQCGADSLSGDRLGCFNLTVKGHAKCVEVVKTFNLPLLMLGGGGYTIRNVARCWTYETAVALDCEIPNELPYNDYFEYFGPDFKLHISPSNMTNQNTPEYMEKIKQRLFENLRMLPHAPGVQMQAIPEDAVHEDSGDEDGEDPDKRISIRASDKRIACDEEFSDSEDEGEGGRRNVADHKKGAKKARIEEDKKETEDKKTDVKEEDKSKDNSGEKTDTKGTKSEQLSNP

CNE2 = assay: Cancer cell growth inhibition, CNE2; assay type: cell-based, human; settings: Homo sapiens, CNE-2; CNE2, Nasopharyngeal Cancer, 72 h treatment
Description: as §1, §2, §3, §4

HCT-116 = assay: Cancer cell growth inhibition, HCT-116; assay type: cell-based, human; settings: Homo sapiens; HCT-116, Colorectal Cancer, 72 h treatment
Description: as §1, §2, §3, §4

LNCaP = assay: Cancer cell growth inhibition, LNCaP; assay type: cell-based, human; settings: Homo sapiens, Prostate Cancer, 72 h treatment
Description: as §1, §2, §3, §4

SK-MES-1 = assay: Cancer cell growth inhibition, SK-MES-1; assay type: cell-based, human; settings: Homo sapiens; SK-MES-1, Lung Cancer, 72 h treatment
Description: as §1, §2, §3, §4

Colo205 = assay: Cancer cell growth inhibition, Colo205; assay type: cell-based; settings: Homo sapiens, COLO 205; Colo205, Colorectal Cancer, 72 h treatment
Description: as §1, §2, §3, §4

PC-3 = assay: Cancer cell growth inhibition, PC-3; assay type: cell-based, human; settings: Homo sapiens; PC-3, Prostate Cancer, 72 h treatment
Description: as §1, §2, §3, §4

786-O = assay: Cancer cell growth inhibition, 786-O; assay type: cell-based, human; settings: Homo sapiens, 786-0, Kindney Cancer, 72 h treatment
Description: as §1, §2, §3, §4

SK-HEP-1 = assay: Cancer cell growth inhibition, SK-HEP-1; assay type: cell-based; settings: Homo sapiens, SK-HEP1; SK-HEP-1, Liver Cancer, 72 h treatment
Description: as §1, §2, §3, §4

NCI-H460 = assay: Cancer cell growth inhibition, NCI-H460; assay type: cell-based, human; settings: Homo sapiens; NCI-H460, Lung Cancer, 72 h treatment
Description: as §1, §2, §3, §4

MCF-7 = assay: Cancer cell growth inhibition, MCF-7; assay type: cell-based, human; settings: Homo sapiens, MCF7; MCF-7, Breast Cancer, 72 h treatment
Description: as §1, §2, §3, §4

NCI-H226 = assay: Cancer cell growth inhibition, NCI-H226; assay type: cell-based, human; settings: Homo sapiens; NCI-H226, Lung Cancer, 72 h treatment
Description: as §1, §2, §3, §4

[1] = system: Nuclear Extract from HeLa Cells; assay: HeLa Nuclear Extract HDAC assay; assay type: biochemical, human; settings: 50 μM substrate, 30° C., 2 h, read-out: IC50 (nM) of enzyme activity HeLa
Human HDAC8 = Human HDAC8 (Homo sapiens (Human), UniProt Q9BY41); assay: HDAC8 fluorogenic peptide deacetylation assay; assay type: biochemical; settings: human HDAC8, 50 μM substrate, 30° C., 2 h; read-out: IC50 (nM) of enzyme activity HDAC8
Chain of Human HDAC8 (Q9BY41 whole entry): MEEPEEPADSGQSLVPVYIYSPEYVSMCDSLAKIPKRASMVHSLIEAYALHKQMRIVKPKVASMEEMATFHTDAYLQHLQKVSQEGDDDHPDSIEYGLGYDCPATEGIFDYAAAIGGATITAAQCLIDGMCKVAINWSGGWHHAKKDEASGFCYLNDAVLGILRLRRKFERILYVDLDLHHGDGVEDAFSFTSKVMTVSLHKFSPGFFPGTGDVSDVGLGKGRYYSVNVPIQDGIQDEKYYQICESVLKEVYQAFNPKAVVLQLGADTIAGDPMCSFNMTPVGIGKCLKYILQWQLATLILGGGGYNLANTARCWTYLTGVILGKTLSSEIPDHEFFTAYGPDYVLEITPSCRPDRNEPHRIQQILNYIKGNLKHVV

NCI-N87 = assay: Cancer cell growth inhibition, NCI-N87; assay type: cell-based, human; settings: Homo sapiens; NCI-N87, Gastric Cancer, 72 h treatment
Description: as §1, §2, §3, §4

Human HDAC6 = Human HDAC6 (Homo sapiens (Human), UniProt Q9UBN7); assay: HDAC6 fluorogenic peptide deacetylation assay; assay type: biochemical; settings: human HDAC6, 50 μM substrate, 30° C., 2 h; read-out: IC50 (nM) of enzyme activity HDAC6
Chain of Human HDAC6 (Q9UBN7 whole entry): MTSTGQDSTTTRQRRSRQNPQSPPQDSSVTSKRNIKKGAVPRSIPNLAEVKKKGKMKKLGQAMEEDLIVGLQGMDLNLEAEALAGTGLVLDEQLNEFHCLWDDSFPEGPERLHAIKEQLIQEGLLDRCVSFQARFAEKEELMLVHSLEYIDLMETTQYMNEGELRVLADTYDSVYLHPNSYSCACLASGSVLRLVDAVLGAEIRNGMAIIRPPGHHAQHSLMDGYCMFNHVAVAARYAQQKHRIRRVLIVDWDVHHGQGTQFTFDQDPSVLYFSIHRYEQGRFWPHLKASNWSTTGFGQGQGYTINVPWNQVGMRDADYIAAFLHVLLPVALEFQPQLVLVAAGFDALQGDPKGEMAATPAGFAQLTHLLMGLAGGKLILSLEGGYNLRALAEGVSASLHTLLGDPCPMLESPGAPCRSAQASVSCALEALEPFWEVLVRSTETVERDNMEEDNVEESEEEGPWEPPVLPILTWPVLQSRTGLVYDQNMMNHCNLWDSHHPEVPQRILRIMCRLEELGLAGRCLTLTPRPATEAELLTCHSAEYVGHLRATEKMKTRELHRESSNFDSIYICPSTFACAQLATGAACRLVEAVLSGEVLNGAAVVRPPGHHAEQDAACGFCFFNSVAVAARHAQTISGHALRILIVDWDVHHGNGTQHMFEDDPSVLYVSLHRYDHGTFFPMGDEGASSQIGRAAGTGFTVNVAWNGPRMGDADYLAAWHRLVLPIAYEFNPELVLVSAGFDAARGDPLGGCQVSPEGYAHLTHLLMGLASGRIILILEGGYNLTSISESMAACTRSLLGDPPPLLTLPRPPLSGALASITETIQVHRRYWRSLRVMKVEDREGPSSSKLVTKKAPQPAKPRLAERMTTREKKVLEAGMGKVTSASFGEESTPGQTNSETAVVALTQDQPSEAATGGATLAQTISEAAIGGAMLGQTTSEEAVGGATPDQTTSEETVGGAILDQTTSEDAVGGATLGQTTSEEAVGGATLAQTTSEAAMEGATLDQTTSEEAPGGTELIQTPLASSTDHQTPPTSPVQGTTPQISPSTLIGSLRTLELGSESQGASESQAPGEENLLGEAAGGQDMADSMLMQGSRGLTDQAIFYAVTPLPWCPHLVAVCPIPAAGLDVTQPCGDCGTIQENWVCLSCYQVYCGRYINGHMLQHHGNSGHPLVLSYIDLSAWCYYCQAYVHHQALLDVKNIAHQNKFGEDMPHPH

SW480 = assay: Cancer cell growth inhibition, SW480; assay type: cell-based, human; settings: Homo sapiens; SW480, Colorectal Cancer, 72 h treatment
Description: as §1, §2, §3, §4

Row | SMILES | IC50 (MIAPACA-2) [µM] | IC50 (Human HDAC1) [nM] | IC50 (MCG803) [µM] | IC50 (HepG2) [µM] | IC50 (SK-OV-3) [µM] | IC50 (HT-1080) [µM] | IC50 (SW620) [µM] | IC50 (DLD-1) [µM] | IC50 (Human HDAC2) [nM] | IC50 (CNE2) [µM] | IC50 (HCT-116) [µM] | IC50 (LNCaP) [µM] | IC50 (SK-MES-1) [µM] | IC50 (Colo205) [µM] | IC50 (PC-3) [µM] | IC50 (786-O) [µM] | IC50 (SK-HEP-1) [µM] | IC50 (NCI-H460) [µM] | IC50 (MCF-7) [µM] | IC50 (NCI-H226) [µM] | further results
1 | O=C(NO)c1ccc(CNC(=O)c2[nH]c(-c3ccc(O)cc3)cc2-c2ccoc2)cc1 [Example 15, 3-(3-furyl)-N-{4-[(hydroxyamino)carbonyl]benzyl}-5-(4-hydroxyphenyl)-1H-pyrrole-2-carboxamide] | 0.27 | 49.9 | 2.01 | 2.28 | 0.651 | 0.594 | 0.334 | 4.48 | 144 | 16.1 | 0.082 | 1.72 | 3.51 | 0.365 | 0.281 | 2.29 | 0.45 | 6.29 | 2.09 | 3.05 | IC50 (MCF-7-FL): 3.31 µM; IC50 [1]: 3.4 nM; IC50 (Human HDAC8): 74.8 nM
2 | COc1ccc(-c2cc(-c3ccoc3)c(C(=O)NCc3ccc(C(=O)NO)cc3)[nH]2)cc1 [Example 27, 3-(3-furyl)-N-{4-[(hydroxyamino)carbonyl]benzyl}-5-(4-methoxyphenyl)-1H-pyrrole-2-carboxamide] | 0.881 | 71 | 0.738 | 0.498 | 1.67 | 0.161 | 0.377 | 0.592 | 157 | 0.59 | 0.416 | 0.366 | 0.588 | 0.248 | 0.42 | 1.91 | 1.1 | 1.68 | 0.377 | 1.77 | IC50 (NCI-N87): 0.153 µM; IC50 (Human HDAC6): 1.6 nM; IC50 (SW480): 0.574 µM; IC50 [1]: 3.9 nM; IC50 (Human HDAC8): 148 nM
3 | COc1ccc(-c2cc(-c3ccsc3)c(C(=O)NCc3ccc(C(=O)NO)cc3)[nH]2)cc1 [Example 28, N-{4-[(hydroxyamino)carbonyl]benzyl}-5-(4-methoxyphenyl)-3-(3-thienyl)-1H-pyrrole-2-carboxamide] | 7.52 | 184 | 6.08 | 1.77 | 8.43 | 1.09 | 2 | 3.22 | 392 | 5.01 | 1.46 | 3.07 | 1.78 | 3.1 | 1.31 | 10 | 9.93 | 12.1 | 2.77 | 12.6 | IC50 (NCI-N87): 1.48 µM; IC50 (Human HDAC6): 2 nM; IC50 (SW480): 2.38 µM; IC50 [1]: 22 nM; IC50 (Human HDAC8): 174 nM
